The source of these data is patent publication US9018173B2, “Materials and methods for suppressing inflammatory and neuropathic pain” (Indiana University Research and Technology Corp., priority 2010, dated 2015).

Residues, ends and D or L forms follow the SMILES beside them.

The subject of data set [1] is CRMP-2 binding to L1 and Ct-dis regions of CaV2.2. Kind of data set: In vitro binding of L1-GST and Ct-dis-GST fusion proteins to CRMP-2. The note with it: peptides 10 μM. Also noted: species or system rat. An excerpt:
In Vitro Protein Binding Assays. Using Vector NTI (v. 11; Invitrogen) software, primers were designed to amplify regions corresponding to the first cytoslic loop (L1; amino acids 356 to 483) and the distal end of the C-terminus (Ct-dis; amino acids 2133 to 2348) of rat CaV2.2 cDNA from P3 rat brain cDNA. The primers harbored restriction sites (Bam HI or Bgl II (5′) and Eco RI or Mfe I (3′)) to facilitate cloning into […]. In addition to the GST-tag, this vector contains the Glu tag, a sequence of six amino acids (EYMPME). Correctly-amplified PCR products and parent pGex-3x-Glu vector were digested with the indicated restriction enzymes, and then extracted following electrophoresis on an agarose gel. The extracted DNAs were quantified (Nanodrop 1000, Thermo Scientific), and ligations were performed using 6:1 and 3:1 insert to vector molar ratios. […]
Monoclonal Glu antibody-saturated Protein G beads (GE Healthcare) carrying various CaV2.2 cytoplasmic loop constructs were incubated with rat brain synaptosome protein in the presence of TAT control or TAT CBD3 peptides (10 μM) in a total reaction volume of 400 μl. […] The samples were then washed three times with a 1000-fold excess of binding buffer, and the proteins were eluted in 40 μl of SDS gel buffer and boiled for 5 min, after which 20 μl of each assay was run on SDS-PAGE and analyzed by immunoblotting with CRMP-2.

Data set [2] concerns formalin-induced nocifensive behavior. Kind of data set: Formalin test. The conditions noted are these: 30 μM intraplantar, 30 min before formalin. It is filed as in vivo, rat. On the procedure: Referring now to FIG. 16. TAT-CBD3 reduces acute, inflammatory and neuropathic pain. (FIG. 16A) Time course of number of flinches following subcutaneous (dorsal surface of paw) injection of formalin (2.5%; 50 μl saline) in animals pretreated with peptides (3-100 μM; 20 μl dorsal surface of paw) 30 min before formalin (n=4-10). (FIG. 16B) The effect of peptides on number of flinches on formalin-induced phase 1 (0-10 min) and phase 2 (15-60 min). *, p<0.05 versus formalin-injected animals. (FIG. 16C) Formalin induces paw edema. Paw thickness was measured 1 h after injection of saline, formalin, and formalin+peptides (100 μM). *, p<0.05 versus saline-injected animals. (FIG. 16D) Pretreatment with TAT-CBD3 attenuates capsaicin-evoked nocifensive behavior. Vehicle (0.3% DMSO) or peptides (concentrations as indicated) in saline (40 μL) was instilled corneally and nocifensive behavior noted. […]
Behavioral analyses. […] For the eye-wipe test, vehicle, TAT control or TAT CBD3 peptides (30 μM, 40 μl) were pipetted directly into the right eye and the resulting nocifensive behavior was measured. […] This nocifensive behavior was recorded for five minutes and followed by capsaicin (3 μM; 40 μl saline) application into the pretreated eye. […]

Data set [3] relates to depression/despair-associated behavior. Kind of data set: Tail suspension test (TST). The class given is in vivo, C57BL6 mice. The conditions noted are these: for Tail Suspension Test: Active: C57BL6 mice, 1 h after injection, 5 min test. The procedure: The light-dark box test and the elevated plus maze were used as measures of anxiety-associated behaviors. The tail suspension test was performed to evaluate despair- and depression-associated behavior.
Depression/Despair-behavior testing. Since rodents such as mice and rats display immobile postures when placed in inescapable stressful situations, immobility behavior in the tail suspension test (TST) or forced swim test (FST) is used as a measure of “depression” or “despair”-associated behavior. Furthermore, administering antidepressant treatments prior to testing reduces immobility behavior. Therefore TST and FST are often used to screen novel drugs for depressant or anti-depressant properties.
Tail suspension test as a measure of depression-associated behavior. Immediately following the EPM test, the TST was conducted according to standard procedure between 8:00 AM and 2:00 PM. Cryan, J. F., Mombereau, C., & Vassout, A. The tail suspension test as a model for assessing antidepressant activity: review of pharmacological and genetic studies in mice. Neurosci. Biobehay. Rev. 29, 571-625 (2005). Briefly, each mouse was suspended by the tail at a height of 40 cm by taping the rail to a horizontal bar so that the tail is vertical to the bar. Behavior was video recorded for 5 min and later analyzed by an experimenter, whom was blind to the treatments. […] If a mouse climbed its tail the mouse was gently pulled back down and the trial continued. Mice that climbed their tails for more than 20% of the trial (i.e. >60 seconds) were eliminated from the final analysis. Duration and frequency of immobility was the main parameters measured. Mice injected with the scrambled control peptide were immobile approximately 26% of the TST duration which is equivalent to baseline immobility durations (approximately 27%) observed in C57B16 mice in another recent study.

For the compound ARSRLAELRGVPRGL (CBD3), the “interaction between CRMP-2 and L1 or Ct-dis regions of CaV2.2” value in data set [1] is reported as “disrupted the interaction”. In addition, the “formalin-induced flinching, phase 1 and phase 2” value in data set [2] is “displayed blunted nociceptive behaviors in both phases”.

On to `CC(C)C[C@H](NC(=O)CNC(=O)[C@H](CCCNC(=N)N)NC(=O)[C@@H]1CCCN1C(=O)[C@@H](NC(=O)CNC(=O)[C@H](CCCNC(=N)N)NC(=O)[C@H](CC(C)C)NC(=O)[C@H](CCC(=O)O)NC(=O)[C@H](C)NC(=O)[C@H](CC(C)C)NC(=O)[C@H](CCCNC(=N)N)NC(=O)[C@H](CO)NC(=O)[C@H](CCCNC(=N)N)NC(=O)[C@H](C)NC(=O)[C@H](CCCNC(=N)N)NC(=O)[C@H](CCCNC(=N)N)NC(=O)[C@H](CCCNC(=N)N)NC(=O)[C@H](CCC(N)=O)NC(=O)[C@H](CCCNC(=N)N)NC(=O)[C@H](CCCNC(=N)N)NC(=O)[C@H](CCCCN)NC(=O)[C@H](CCCCN)NC(=O)[C@H](CCCNC(=N)N)NC(=O)CNC(=O)[C@@H](N)Cc1ccc(O)cc1)C(C)C)C(=O)O` [TAT-CBD3] (H-YGRKKRRQRRRARSRLAELRGVPRGL-OH; N-terminus and C-terminus assumed), for which the “Tail Suspension Test: Active” value in data set [3] (0.1 mg/kg i.p.) is 238.1 ± 13.6 s; in data set [3] (1 mg/kg i.p.), 235.2 ± 13.0 s; in data set [3] (10 mg/kg i.p.), 239.7 ± 10.9 s. Also, the “TST time spent immobile and frequency of immobile episodes” value in data set [3] (any dose, compared to TAT-Scramble) is “neither time spent immobile, nor frequencies of immobile episodes were altered”.
